Assay: Phase one study part 2: multiple dose (28 days) plasma PK of free and total DGLA
Type: in vivo, human
Procedure: Multiple dose part two of the study comprised two cohorts (Cohorts five and six) of eight subjects each, who were administered multiple doses of study drug in the fasted state for 28 days. Subjects in Cohorts five and six received DS107G at 2000 or 4000 mg, respectively, or matching placebo once daily for 28 days. Cohort six was started after Cohort five's safety data were evaluated by the SMC. No interim analysis was planned. […]
In Part two of the study (Cohorts five and six), subjects were administered study drug (500-mg DS107G capsules or matching placebo capsules) once daily in the fasted state for 28 days. Subjects in Cohort five received study drug first and, if they tolerated the 2000-mg daily dose for the first 14 days, subjects in Cohort six were started on the 4000-mg daily dose for 28 days.
PK parameter was computed after correcting the dosed DGLA concentrations with baseline DGLA concentrations.

[1] = 2000 mg once daily, Day 1, 0 to 24 hours
[2] = 2000 mg once daily, Day 28, 0 to 24 hours
[3] = 2000 mg once daily, Day 28, 0 to 168 hours
[4] = 2000 mg once daily, Day 28: 0 to 24 hours
[5] = 4000 mg once daily, Day 1, 0 to 24 hours
[6] = 4000 mg once daily, Day 28, 0 to 24 hours

## CCCCC/C=C\C/C=C\C/C=C\CCCCCCC(=O)O [DS107G, Dihomo gamma linolenic acid]
2000 mg
  free DGLA mean accumulation ratio (AR), AUC: ~3.3
  free DGLA mean accumulation ratio (AR), Cmax: ~2.8
[1]
  AUC0-24, mean, free DGLA, baseline-corrected plasma: 4548.7 ng·h/mL
  AUC0-24/Dose, mean, free DGLA, baseline-corrected plasma: 2.27 h/kL
  AUC0-24/Dose, mean, total DGLA, baseline-corrected plasma: 149.09 h/kL
  AUC0-inf, mean, free DGLA, baseline-corrected plasma: 5955.6 ng·h/mL
  AUC0-inf/Dose, mean, free DGLA, baseline-corrected plasma: 2.98 h/kL
  AUC0-inf/Dose, mean, total DGLA, baseline-corrected plasma: 2080.61 h/kL
  CL/F, mean, free DGLA, baseline-corrected plasma: 0.5448 kL/h
  Cmax, mean, free DGLA, baseline-corrected plasma: 850.5 ng/mL
  Cmax/Dose, mean, free DGLA, baseline-corrected plasma: 0.425 kL⁻¹
  Cmax/Dose, mean, total DGLA, baseline-corrected plasma: 9.050 kL⁻¹
  λz, mean, free DGLA, baseline-corrected plasma: 0.2133 h⁻¹
  λz, mean, total DGLA, baseline-corrected plasma: 0.221 h⁻¹
[2]
  AUC0-24, mean, free DGLA, baseline-corrected plasma: 9248.1 ng·h/mL
  AUC0-24/Dose, mean, free DGLA, baseline-corrected plasma: 4.62 h/kL
  AUC0-24/Dose, mean, total DGLA, baseline-corrected plasma: 675.69 h/kL
  AUC0-inf, mean, free DGLA, baseline-corrected plasma: 10389.0 ng·h/mL
  AUC0-inf/Dose, mean, free DGLA, baseline-corrected plasma: 5.19 h/kL
  AUC0-inf/Dose, mean, total DGLA, baseline-corrected plasma: 2579.58 h/kL
  CL/F, mean, free DGLA, baseline-corrected plasma: 0.2002 kL/h
  Cmax, mean, free DGLA, baseline-corrected plasma: 1999.3 ng/mL
  Cmax/Dose, mean, free DGLA, baseline-corrected plasma: 1.000 kL⁻¹
  Cmax/Dose, mean, total DGLA, baseline-corrected plasma: 37.792 kL⁻¹
  λz, mean, free DGLA, baseline-corrected plasma: 0.1282 h⁻¹
  λz, mean, total DGLA, baseline-corrected plasma: 0.0199 h⁻¹
[3]
  AUC0-24, mean, free DGLA, baseline-corrected plasma: 9248.1 ng·h/mL
  AUC0-24/Dose, mean, free DGLA, baseline-corrected plasma: 4.62 h/kL
  AUC0-24/Dose, mean, total DGLA, baseline-corrected plasma: 675.69 h/kL
  AUC0-inf, mean, free DGLA, baseline-corrected plasma: 43024.8 ng·h/mL
  AUC0-inf/Dose, mean, free DGLA, baseline-corrected plasma: 21.51 h/kL
  AUC0-inf/Dose, mean, total DGLA, baseline-corrected plasma: 2513.91 h/kL
  CL/F, mean, free DGLA, baseline-corrected plasma: 0.0949 kL/h
  Cmax, mean, free DGLA, baseline-corrected plasma: 1999.3 ng/mL
  Cmax/Dose, mean, free DGLA, baseline-corrected plasma: 1.000 kL⁻¹
  Cmax/Dose, mean, total DGLA, baseline-corrected plasma: 37.792 kL⁻¹
  λz, mean, free DGLA, baseline-corrected plasma: 0.0250 h⁻¹
  λz, mean, total DGLA, baseline-corrected plasma: 0.0169 h⁻¹
[4]
  % PTF (peak trough fluctuation), mean, free DGLA, steady-state baseline-corrected plasma: 492.54%
  % PTF (peak trough fluctuation), mean, total DGLA, steady-state baseline-corrected plasma: 62.50%
  AR(AUC) accumulation ratio, mean, free DGLA, steady-state baseline-corrected plasma: 3.340
  AR(AUC) accumulation ratio, mean, total DGLA, steady-state baseline-corrected plasma: 7.991
  AR(Cmax) accumulation ratio, mean, free DGLA, steady-state baseline-corrected plasma: 2.796
  AR(Cmax) accumulation ratio, mean, total DGLA, steady-state baseline-corrected plasma: 5.156
  CLss/F, mean, free DGLA, steady-state baseline-corrected plasma: 0.2295 kL/h
  CLss/F, mean, total DGLA, steady-state baseline-corrected plasma: 0.0016 kL/h
  Cavg, mean, free DGLA, steady-state baseline-corrected plasma: 385.3 ng/mL
  Cavg, mean, total DGLA, steady-state baseline-corrected plasma: 56307.2 ng/mL
  Cmin, mean, free DGLA, steady-state baseline-corrected plasma: 100.8 ng/mL
  Cmin, mean, total DGLA, steady-state baseline-corrected plasma: 37933.3 ng/mL
  Vzss/F, mean, free DGLA, steady-state baseline-corrected plasma: 5.3096 kL
  Vzss/F, mean, total DGLA, steady-state baseline-corrected plasma: 0.0980 kL
  tmin, median, free DGLA, steady-state baseline-corrected plasma: 8.00 h
  tmin, median, total DGLA, steady-state baseline-corrected plasma: 1.50 h
4000 mg
  free DGLA mean accumulation ratio (AR), AUC: ~1.6
  free DGLA mean accumulation ratio (AR), Cmax: ~1.4
[5]
  AUC0-24, mean, free DGLA, baseline-corrected plasma: 11441.4 ng·h/mL
  AUC0-24/Dose, mean, free DGLA, baseline-corrected plasma: 2.86 h/kL
  AUC0-24/Dose, mean, total DGLA, baseline-corrected plasma: 114.05 h/kL
  AUC0-inf, mean, free DGLA, baseline-corrected plasma: 13900.3 ng·h/mL
  AUC0-inf/Dose, mean, free DGLA, baseline-corrected plasma: 3.48 h/kL
  CL/F, mean, free DGLA, baseline-corrected plasma: 0.3325 kL/h
  Cmax, mean, free DGLA, baseline-corrected plasma: 2641.5 ng/mL
  Cmax/Dose, mean, free DGLA, baseline-corrected plasma: 0.660 kL⁻¹
  Cmax/Dose, mean, total DGLA, baseline-corrected plasma: 6.967 kL⁻¹
  λz, mean, free DGLA, baseline-corrected plasma: 0.1504 h⁻¹
[6]
  AUC0-24, mean, free DGLA, baseline-corrected plasma: 16155.2 ng·h/mL
  AUC0-24/Dose, mean, free DGLA, baseline-corrected plasma: 4.04 h/kL
  AUC0-24/Dose, mean, total DGLA, baseline-corrected plasma: 465.14 h/kL
  AUC0-inf, mean, free DGLA, baseline-corrected plasma: 22926.3 ng·h/mL
  AUC0-inf/Dose, mean, free DGLA, baseline-corrected plasma: 5.73 h/kL
  AUC0-inf/Dose, mean, total DGLA, baseline-corrected plasma: 1194.91 h/kL
  CL/F, mean, free DGLA, baseline-corrected plasma: 0.1865 kL/h
